Assay [1] has as its system MDA-MB-468 (human breast cancer cells). Description: Inhibition of cell line proliferation, CCK8. The format is cell-based. The conditions noted are these: MDA-MB-468, 68-72 hours, CCK8. The procedure: (§1) Experimental Operations: LNCaP, SK-BR-3, MDA-MB-468 and CFPAC-1 cells were prepared in advance and counted; with a culture medium (IMDM+10% FBS+1× L-Glutamine+1×P/S), the cells LNCaP, SK-BR-3, MDA-MB-468 and CFPAC-1 were diluted to 4×10^4 cells/ml; the diluted cell solution was plated in 96-well plates at 100 µl/well; and negative control and blank control wells were set on each plate. After adherent cell culture overnight, the diluted samples to be tested were added at 50 μl/well. The plates were placed in an incubator at 37° C., 5% CO2 and cultured for 68-72 hours. To each well, 15 μl (10% of the liquid volume in a well) of a color developing solution from CCK8 was added; and the plates were incubated at 37° C. for 45-70 minutes and each plate was read at 450 nm on a microplate reader. The data was edited using SoftMax Pro and a 4-P fitting curve was plotted.
as §1, with “Operations: LNCaP, MDA-MB-468, CFPAC-1 and PANC-1” for “Operations: LNCaP, SK-BR-3, MDA-MB-468 and CFPAC-1”, “CFPAC-1 and PANC-1 cells were” for “MDA-MB-468 and CFPAC-1 cells were”, “cells LNCaP, MDA-MB-468 and” for “cells LNCaP, SK-BR-3, MDA-MB-468 and”, “to 4×10^4 cells/ml, and PANC-1 was diluted to 3.0×10^4 cells/ml; the” for “to 4×10^4 cells/ml; the”, “at 100 μl/well; and negative” for “at 100 µl/well; and negative”
(§2) Experimental operations: NCI-H226, CFPAC-1 and MDA-MB-468 cells were prepared in advance and counted; MDA-MB-468 and CFPAC-1 cells were plated at a density of 2×10^4 cells/ml (100 μl/well) and NCI-H226 cells were plated at a density of 1×10^4 cells/ml (100 μl/well) in 96-well plates; and negative control and blank control wells were set on each plate. After adherent cell culture overnight, the diluted samples to be tested were added at 50 μl/well. The plates were placed in an incubator at 37° C., 5% CO2 and cultured for 68-72 hours. To each well, 15 μl (10% of the liquid volume in a well) of a color developing solution from CCK8 was added; and the plates were incubated at 37° C. for 45-70 minutes and each plate was read at 450 nm on a microplate reader. The data was edited using SoftMax Pro and a 4-P fitting curve was plotted.

Assay [2] relates to NCI-H226 (human lung cancer cells). Description: Inhibition of cell line proliferation, CCK8. The format is cell-based. Particulars: NCI-H226, 68-72 hours, CCK8. The procedure:
(§3) Experimental operations: LNCaP, SK-BR-3, NCI-H226, CFPAC-1 and PANC-1 cells were prepared in advance and counted; with a culture medium (IMDM+10% FBS+1× L-Glutamine+1×P/S), the cells LNCaP, SK-BR-3 and CFPAC-1 were diluted to 4×10^4 cells/ml, NCI-H226 was diluted to 2.0×10^4 cells/ml and PANC-1 was diluted to 3.0×10^4 cells/ml; the diluted cell solution was plated in 96-well plates at 100 μl/well; and negative control and blank control wells were set on each plate. After adherent cell culture overnight, the diluted samples to be tested were added at 50 μl/well. The plates were placed in an incubator at 37° C., 5% CO2 and cultured for 68-72 hours. To each well, 15 μl (10% of the liquid volume in a well) of a color developing solution from CCK8 was added; and the plates were incubated at 37° C. for 45-70 minutes and each plate was read at 450 nm on a microplate reader. The data was edited using SoftMax Pro and a 4-P fitting curve was plotted.
as §2

Assay [3] has as its system CFPAC-1 (human pancreatic cancer cells). Description: Inhibition of cell line proliferation, CCK8. The format is cell-based. The conditions noted are these: CFPAC-1, 68-72 hours, CCK8. The procedure: Experimental operations: PANC-1 and CFPAC-1 cells were prepared in advance, counted, and plated in 96-well cell culture plates at a cell density of 4×10^4 cells/ml (100 μl/well); negative control and blank control wells were set on each plate. After adherent cell culture overnight, the diluted samples to be tested were added at 50 μl/well. The plates were placed in an incubator at 37° C., 5% CO2 and cultured for 68-72 hours. To each well, 15 μl (10% of the liquid volume in a well) of a color developing solution from CCK8 was added; and the plates were incubated at 37° C. for 45-70 minutes and each plate was read at 450 nm on a microplate reader. The data was edited using SoftMax Pro and a 4-P fitting curve was plotted.
as §3, §1
as §1, with “Operations: LNCaP, MDA-MB-468, CFPAC-1 and PANC-1” for “Operations: LNCaP, SK-BR-3, MDA-MB-468 and CFPAC-1”, “CFPAC-1 and PANC-1 cells were” for “MDA-MB-468 and CFPAC-1 cells were”, “cells LNCaP, MDA-MB-468 and” for “cells LNCaP, SK-BR-3, MDA-MB-468 and”, “to 4×10^4 cells/ml, and PANC-1 was diluted to 3.0×10^4 cells/ml; the” for “to 4×10^4 cells/ml; the”, “at 100 μl/well; and negative” for “at 100 µl/well; and negative”
Experimental operations: NCI-H226, CFPAC-1 and MDA-MB-468 cells were prepared in advance and counted; MDA-MB-468 and CFPAC-1 cells were plated at a density of 2×10^4 cells/ml (100 μl/well) and NCI-H226 cells were plated at a density of 1×10^4 cells/ml (100 μl/well) in 96-well plates; and negative control and blank control wells were set on each plate. After adherent cell culture overnight, the diluted samples to be tested were added at 50 μl/well. The plates were placed in an incubator at 37° C., 5% CO2 and cultured for 68-72 hours. […]

Assay [4] relates to lung cancer PDX model LU2505. As to the kind of experiment: Effectiveness in lung cancer LU2505 model (PDX model). The format is in vivo, BALB/c nude mice. An excerpt:
The active substance of test sample CBP-1018 is CB-20BK, which is obtained by mixing CB-20BK with auxiliary materials and then lyophilizing same.

The test system of assay [5] is lung cancer PDX model LU1206. Description: Effectiveness in lung cancer LU1206 model (PDX model). The format is in vivo, BALB/c nude mice.
Procedure: BALB/c nude mice bore tumors subcutaneously and, when the tumor volume reached about 150 mm^3, were grouped into: low-dose, medium-dose and high-dose test sample groups, a small molecule MMAE control group, a targeting polypeptide 20BK-SM09 control group, and a blank control group (a total of 6 groups, and 8 mice per group); the mice were administered on day 1, day 8 and day 15 after the grouping; and the observation was continued for 14 days after the last administration.
Where [6] appears, read: 10 mg/kg on day 1, 8, 15, euthanized on day 29.

The term IC50 denotes the concentration needed to halve the response being measured.

Numbered stars: 1 amine (or outer) side, 2 acyl side, 3 side chain; on linkers, the order of the positions; unused ones are H or OH. Bridge positions count the residues as written; N and C are the ends. Square brackets hold non-standard residues; d marks the D form. Peptide text beside a SMILES is read from it. I, II: the chains in the order shown. * marks the point of attachment. ξ: configuration not given here. Exatecan = CC[C@@]1(O)C(=O)OCc2c1cc1n(c2=O)Cc2c-1nc1cc(F)c(C)c3c1c2[C@@H](N*)CC3; Hexanoyl(6-succinimido-3yl) = O=C1CC([*:1])C(=O)N1CCCCCC(=O)[*:2]; Pteroyl = Nc1nc2ncc(CNc3ccc(C(=O)*)cc3)nc2c(=O)[nH]1; γGlu = O=C(O)[C@H](CCC(=O)[*:2])N[*:1]; NHCH2OCH2CO = O=C(COCN[*:1])[*:2]; ξV = CC(C)C(N)C(=O)O

With `CC[C@@]1(O)C(=O)OCc2c1cc1n(c2=O)Cc2c-1nc1cc(F)c(C)c3c1c2[C@@H](NC(=O)COCNC(=O)CNC(=O)[C@H](Cc1ccccc1)NC(=O)CNC(=O)CNC(=O)CCCCCN1C(=O)CC(SC[C@H](NC(=O)CC[C@H](NC(=O)c2ccc(NCc4cnc5[nH]c(N)nc(=O)c5n4)cc2)C(=O)O)C(=O)N[C@@H](CCCCN)C(=O)N[C@@H](CCC(=O)O)C(=O)N[C@@H](Cc2ccccc2)C(=O)N[C@@H](CC(C)C)C(=O)N[C@@H](Cc2cnc[nH]2)C(=O)N2CCC[C@H]2C(=O)N[C@@H](CO)C(=O)N[C@@H](CCCCN)C(=O)NC(C(=O)N[C@@H](CC(=O)O)C(=O)N[C@@H](CC(C)C)C(=O)N2CCC[C@H]2C(=O)N[C@@H](CCCNC(=N)N)C(=O)O)C(C)C)C1=O)CC3` (stereo partly shown) [CR19425] (I: {Pteroyl-γGlu}-CKEFLHPSK[ξV]DLPR-OH / II: GGFG[NHCH2OCH2CO]-Exatecan; linker I:1-II:N via Hexanoyl(6-succinimido-3yl)), the IC50 is 951 nM in assay [1], 1010 nM in assay [2] and 621 nM in assay [3].
In the same order, the values of `CC[C@@]1(O)C(=O)OCc2c1cc1n(c2=O)Cc2c-1nc1cc(F)c(C)c3c1c2[C@@H](NC(=O)CO)CC3` [Dxd0017, reference compound] are 6.1 nM, 8 nM and 6.4 nM.
In the same order, the values of `CCCC(=O)N[C@@H](Cc1ccccc1)C(=O)N[C@H]1CSSC[C@@H](C(=O)N[C@H](C(=O)N[C@@H](CCCCNC(=O)[C@H](CCC(=O)O)NC(=O)CCOCCOCCOCCOCCNC(=O)[C@H](CCC(=O)O)NC(=O)[C@H](CSC2CC(=O)N(CCCCCC(=O)NCC(=O)NCC(=O)N[C@@H](Cc3ccccc3)C(=O)NCC(=O)NCOCC(=O)N[C@H]3CCc4c(C)c(F)cc5nc6c(c3c45)Cn3c-6cc4c(c3=O)COC(=O)[C@]4(O)CC)C2=O)NC(=O)CC[C@H](NC(=O)c2ccc(NCc3cnc4[nH]c(N)nc(=O)c4n3)cc2)C(=O)O)C(N)=O)[C@@H](C)O)NC(=O)[C@H]([C@@H](C)O)NC(=O)[C@H](CCCCN)NC(=O)[C@H](Cc2c[nH]c3ccccc23)NC(=O)[C@H](Cc2ccc(O)cc2)NC1=O` (stereo partly shown) [CR19426] are 2300 nM, 4390 nM and 1660 nM.
Regarding `NCCCC[C@H](CC(=O)[C@H](CC(=O)O)NC(=O)[C@H](CC(=O)O)NC(=O)Cc1ccc(CNC(=O)NCCCC[C@H](NC(=O)N[C@@H](CCC(=O)O)C(=O)O)C(=O)O)cc1)C(=O)N[C@@H](CS)C(=O)N[C@@H](CCCCNC(=O)CC[C@H](NC(=O)c1ccc(NCc2cnc3[nH]c(N)nc(=O)c3n2)cc1)C(=O)O)C(N)=O` [20BK-SM09], the “tumor growth inhibition effect (in words)” value in assay [4] (10 mg/kg) and in assay [5] (10 mg/kg) was “no obvious tumor growth inhibition effect” in each case. The Tumor volume is reported as 2024.75 mm^3 in assay [4] (10 mg/kg on day 1, 8, 15, D22) and 1158.80 mm^3 in assay [5] (10 mg/kg on day 1, 8, 15). The Tumor weight is on record as 1811.5 (D22) mg in assay [4] (10 mg/kg on day 1, 8, 15, D22) and 914.36 mg in assay [5] (setting [6]). Also, the “Tumor weight Inhibition ratio” value in assay [5] (setting [6]) was −6.80%.
Take `CCc1c2c(nc3ccc(O)cc13)-c1cc3c(c(=O)n1C2)COC(=O)[C@]3(O)CC` [SN-38, reference compound]: the figures for the IC50 in assay [1], in assay [2] and in assay [3] were 13.6 nM, 17.3 nM and 5.5 nM, respectively.

Values taken from patent publication US20220175761A1, “BI-LIGAND DRUG CONJUGATE AND USE THEREOF” (COHERENT BIOPHARMA (SUZHOU), LIMITED, priority 2019, published 2022).
